Measurements as given in patent publication US20230372498A1, “PLK1 SELECTIVE DEGRADATION INDUCING COMPOUND” (UPPTHERA, priority 2020, published 2023).

Target: T1, PLK1 (Homo sapiens, UniProt P53350)
T1 construct: endogenous in cells; host or cells: HeLa
Assay: PLK1 protein degradation in HeLa cells, Western blotting (PLK1/GAPDH ratio)
Assay type: cell-based
Settings: for DC50 / Dmax: 6 hours compound incubation; for DC50: measured only if the grade of Dmax is A or B; for PLK1 protein degradability (western blot, FIG. 1 and 2): in comparison with Comparative Compounds; for Dmax: thymidine block and release, 10 points three-fold from 3 μM, PLK1 to GAPDH ratio, read-out: Dmax
Description: The HeLa cell line was purchased from Korea Cell Line Bank (KCLB), Seoul, Korea. The passage in cell culture was maintained at P115 to P125.
For cell culture, DMEM (Gibco, Cat. No. 1195-65; Lot. No. 2085318), FBS (Gibco, Cat. No. 16000-044; Lot. No. 2097593), Penicillin/Streptomycin (PS) (Gibco, Cat. No. 15140-122; Lot. No. 2058855), 100 mm^2 cell culture dish (SPL, Cat. No. 20100), 150 mm^2 cell culture dish (SPL, Cat. No. 20150), 12-well culture plate (SPL, Cat. No. 30012), PBS pH 7.4 (Gibco, Cat. No. 10010-023; Lot. No. 2085080), TrypLE™ Express (Gibco, Cat. No. 12605-010; Lot No. 2070638), Counting Chamber (Hematocytometer) (Hirschmann, Cat. No. 8100204), and 0.4% Trypan Blue Solution (DYNEBIO, Cat. No. CBT3710; Lot. No. 20190723) were used.
2×10^5 cells were seeded for each well of a 12-well plate (SPL), and the cells were cultured in the culture medium in a total volume of 2 ml.
The compounds of Examples were completely dissolved in DMSO and used in the experiment, and thymidine was completely dissolved in DW and used in the experiment. For thymidine block, the products were treated with 2 mM of thymidine (Sigma-Aldrich Cat. No. T9250-5G) and then incubated for 24 hours.
For release and chemical treatment, the medium was suctioned and washed 3 times with 1×PBS. Complete media was added, followed by incubation for 4 hours in a CO2 incubator. Each compound was diluted three folds from the highest concentration of 3 μM to the lowest concentration in 10 points and then incubated for 6 hours again.
For SDS-PAGE and Western blotting, 1×RIPA lysis buffer (Rockland, Cat. No. MB-030-0050; Lot no. 39751), 100× Protease Inhibitor Cocktail (Quartett, Cat. No. PPI1015; Lot no. PCO50038424), Pierce™ BCA protein assay kit (ThermoScientific, Cat. No. 23225; Lot no. UC276876), albumin standard (ThermoScientific, Cat. No. 23209; Lot no. UB269561), 4-15% Mini-PROTEAN TGX stain-free gel (Bio-rad, Cat. No. 4568085; Lot no. L007041B), 10× Tris/Glycine/SDS buffer (Bio-rad, Cat. No. 1610732; Lot no. 10000044375B); 10×TBS (Bio-rad, Cat. No. 1706435; Lot no. 1000045140B), 10% Tween 20 (Cat. No. 1610781; Lot no. L004152B), Color protein standard broad range (NEB, Cat. No. P7719S; Lot no. 10040349), 4× Laemmli sample buffer (Bio-rad, Cat. No. 1610747; Lot no. L004133B), β-mercaptoethanol (Sigma-Aldrich, Cat. No. M3148; Lot no. 60-24-2), SuperBlock™ T20 (TBS) blocking buffer (ThermoScientific, Cat. No. 37536; Lot no. UC282578), 1M sodium azide solution (Sigma-Aldrich, Cat. No. 08591-1 mL-F; Lot no. BCBV4989), α-Rabbit pAb to Ms IgG (abcam, Cat. No. ab97046; Lot no. GR3252115-1), α-Goat pAb to Rb IgG (CST, Cat. No. 7074S; Lot no. 28), α-GAPDH (abcam, Cat. No. ab8245; Lot no. GR3275542-2), α-Plk1 (CST, Cat. No. 208G4), α-BRD4 (CST, Cat. No. 13440S), ECL™ Prime western blotting reagents (GE Healthcare, Cat. No. RPN2232; Lot no. 17001655), Ponceau S solution (Sigma-Aldrich, Cat. No. P7170; Lot no. SLBV4112), Difco™ Skim milk (BD, Cat. No. 232100; Lot no. 8346795), and iBlot® 2 NC Regular stacks (Invitrogen, Cat. No. IB323001; Lot no. 2NR110619-02) were used.
For cell harvesting, the cells were first separated from the plate using trypsin and then washed with the medium and PBS. Specifically, the medium was suctioned off and washed with 1 mL of PBS, and PBS was suctioned off. The cells were treated with 0.5 mL TrypLE™ Express at 37° C. for 7 minutes to separate the cells, and then 0.5 mL of complete medium was added to collect 1 mL of cell culture solution. Then, 1 mL of the cell collection solution was centrifuged at 8,000 rpm for 120 seconds, and the supernatant was removed. After washing with 0.2 mL of PBS, the PBS was removed.
For cell lysis, a lysis buffer was added and cell debris was removed to obtain a cell lysate. Specifically, the cells were treated with 70 μL of 1×RIPA buffer containing a protease inhibitor and incubated for 30 minutes on ice. Then, the cells were centrifuged at 4° C. and 15,000 rpm for 10 minutes to obtain a cell lysate. […]

T1 sequence (P53350 whole entry): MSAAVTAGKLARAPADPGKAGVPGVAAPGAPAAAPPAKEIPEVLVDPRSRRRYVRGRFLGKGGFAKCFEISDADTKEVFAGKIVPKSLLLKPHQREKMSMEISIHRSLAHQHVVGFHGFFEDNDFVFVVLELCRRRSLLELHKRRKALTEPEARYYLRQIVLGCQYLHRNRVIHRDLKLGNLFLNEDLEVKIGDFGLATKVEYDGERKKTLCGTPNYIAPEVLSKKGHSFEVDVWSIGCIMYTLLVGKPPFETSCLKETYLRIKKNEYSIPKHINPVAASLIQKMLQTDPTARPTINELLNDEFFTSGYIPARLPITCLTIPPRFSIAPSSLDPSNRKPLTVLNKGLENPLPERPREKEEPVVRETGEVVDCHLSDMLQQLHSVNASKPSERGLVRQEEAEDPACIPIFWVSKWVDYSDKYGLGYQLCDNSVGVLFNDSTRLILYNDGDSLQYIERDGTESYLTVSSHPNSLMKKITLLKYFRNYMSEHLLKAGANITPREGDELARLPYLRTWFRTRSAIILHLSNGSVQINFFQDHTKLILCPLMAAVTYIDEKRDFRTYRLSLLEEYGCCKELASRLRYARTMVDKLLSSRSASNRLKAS

For `COc1cc(C(=O)NC2CCN(CCOCCNc3cccc4c3C(=O)N(C3CCC(=O)NC3=O)C4=O)CC2)c(F)cc1Nc1ncc2c(n1)N(C1CCCC1)CC(F)(F)C(=O)N2C` (stereo not shown) [Compound 1, 4-((9-cyclopentyl-7,7-difluoro-5-methyl-6-oxo-6,7,8,9-tetrahydro-5H-pyrimido[4,5-b][1,4]diazepin-2-yl)amino)-N-(1-(2-(2-((2-(2,6-dioxopiperidin-3-yl)-1,3-dioxoisoindolin-4-yl)amino)ethoxy)ethyl)piperidin-4-yl)-2-fluoro-5-methoxybenzamide], the DC50 was ≤ 0.05 µM, the “PLK1 protein degradability (western blot, FIG. 1 and 2)” value was “excellent PLK1 protein degradability” and the Dmax was ≥ 80%.
`COc1cc(C(=O)NC2CCN(CCOCCOCCNc3cccc4c3C(=O)N(C3CCC(=O)NC3=O)C4=O)CC2)c(F)cc1Nc1ncc2c(n1)N(C1CCCC1)CC(F)(F)C(=O)N2C` (stereo not shown) [Compound 2, 4-((9-cyclopentyl-7,7-difluoro-5-methyl-6-oxo-6,7,8,9-tetrahydro-5H-pyrimido[4,5-b][1,4]diazepin-2-yl)amino)-N-(1-(2-(2-(2-((2-(2,6-dioxopiperidin-3-yl)-1,3-dioxoisoindolin-4-yl)amino)ethoxy)ethoxy)ethyl)piperidin-4-yl)-2-fluoro-5-methoxybenzamide] was tested, and the DC50 was ≤ 0.05 µM, the “PLK1 protein degradability (western blot, FIG. 1 and 2)” value was “excellent PLK1 protein degradability” and the Dmax was ≥ 80%.
`COc1cc(C(=O)NC2CCN(CCOCCOCCOCCNc3cccc4c3C(=O)N(C3CCC(=O)NC3=O)C4=O)CC2)c(F)cc1Nc1ncc2c(n1)N(C1CCCC1)CC(F)(F)C(=O)N2C` (stereo not shown) [Compound 3, 4-((9-cyclopentyl-7,7-difluoro-5-methyl-6-oxo-6,7,8,9-tetrahydro-5H-pyrimido[4,5-b][1,4]diazepin-2-yl)amino)-N-(1-(2-(2-(2-(2-((2-(2,6-dioxopiperidin-3-yl)-1,3-dioxoisoindolin-4-yl)amino)ethoxy)ethoxy)ethoxy)ethyl)piperidin-4-yl)-2-fluoro-5-methoxybenzamide] was tested, and the DC50 was ≤ 0.05 µM and the Dmax was ≥ 80%.
`COc1cc(C(=O)NC2CCN(CCOCCOCCOCCOCCNc3cccc4c3C(=O)N(C3CCC(=O)NC3=O)C4=O)CC2)c(F)cc1Nc1ncc2c(n1)N(C1CCCC1)CC(F)(F)C(=O)N2C` (stereo not shown) [Compound 4, 4-((9-cyclopentyl-7,7-difluoro-5-methyl-6-oxo-6,7,8,9-tetrahydro-5H-pyrimido[4,5-b][1,4]diazepin-2-yl)amino)-N-(1-(14-((2-(2,6-dioxopiperidin-3-yl)-1,3-dioxoisoindolin-4-yl)amino)-3,6,9,12-tetraoxatetradecyl)piperidin-4-yl)-2-fluoro-5-methoxybenzamide] was tested, and the DC50 was ≤ 0.05 µM and the Dmax was ≥ 80%.
For `COc1cc(C(=O)NC2CCN(CCOCCOCCOCCOCCOCCNc3cccc4c3C(=O)N(C3CCC(=O)NC3=O)C4=O)CC2)c(F)cc1Nc1ncc2c(n1)N(C1CCCC1)CC(F)(F)C(=O)N2C` (stereo not shown) [Compound 5, 4-((9-cyclopentyl-7,7-difluoro-5-methyl-6-oxo-6,7,8,9-tetrahydro-5H-pyrimido[4,5-b][1,4]diazepin-2-yl)amino)-N-(1-(17-((2-(2,6-dioxopiperidin-3-yl)-1,3-dioxoisoindolin-4-yl)amino)-3,6,9,12,15-pentaoxaheptadecyl)piperidin-4-yl)-2-fluoro-5-methoxybenzamide], the DC50 was ≤ 0.05 µM and the Dmax was ≥ 80%.
In the case of `COc1cc(C(=O)NC2CCN(CCOCCOCCNc3cccc4c3C(=O)N(C3CCC(=O)N(C)C3=O)C4=O)CC2)c(F)cc1Nc1ncc2c(n1)N(C1CCCC1)CC(F)(F)C(=O)N2C` (stereo not shown) [Compound 6, 4-((9-cyclopentyl-7,7-difluoro-5-methyl-6-oxo-6,7,8,9-tetrahydro-5H-pyrimido[4,5-b][1,4]diazepin-2-yl)amino)-2-fluoro-5-methoxy-N-(1-(2-(2-(2-((2-(1-methyl-2,6-dioxopiperidin-3-yl)-1,3-dioxoisoindolin-4-yl)amino)ethoxy)ethoxy)ethyl)piperidin-4-yl)benzamide], the Dmax is reported as < 60%.
For `COc1cc(C(=O)NC2CCN(CCOCCOCCOCCOCCNc3cccc4c3C(=O)N(C3CCC(=O)N(C)C3=O)C4=O)CC2)c(F)cc1Nc1ncc2c(n1)N(C1CCCC1)CC(F)(F)C(=O)N2C` (stereo not shown) [Compound 7, 4-((9-cyclopentyl-7,7-difluoro-5-methyl-6-oxo-6,7,8,9-tetrahydro-5H-pyrimido[4,5-b][1,4]diazepin-2-yl)amino)-2-fluoro-5-methoxy-N-(1-(14-((2-(1-methyl-2,6-dioxopiperidin-3-yl)-1,3-dioxoisoindolin-4-yl)amino)-3,6,9,12-tetraoxatetradecyl)piperidin-4-yl)benzamide], the Dmax was < 60%.
With `COc1cc(C(=O)NC2CCN(CCCCNc3cccc4c3C(=O)N(C3CCC(=O)NC3=O)C4=O)CC2)c(F)cc1Nc1ncc2c(n1)N(C1CCCC1)CC(F)(F)C(=O)N2C` (stereo not shown) [Compound 8, 4-((9-cyclopentyl-7,7-difluoro-5-methyl-6-oxo-6,7,8,9-tetrahydro-5H-pyrimido[4,5-b][1,4]diazepin-2-yl)amino)-N-(1-(4-((2-(2,6-dioxopiperidin-3-yl)-1,3-dioxoisoindolin-4-yl)amino)butyl)piperidin-4-yl)-2-fluoro-5-methoxybenzamide] the Dmax was < 60%.
For `COc1cc(C(=O)NC2CCN(CCCCCNc3cccc4c3C(=O)N(C3CCC(=O)NC3=O)C4=O)CC2)c(F)cc1Nc1ncc2c(n1)N(C1CCCC1)CC(F)(F)C(=O)N2C` (stereo not shown) [Compound 9, 4-((9-cyclopentyl-7,7-difluoro-5-methyl-6-oxo-6,7,8,9-tetrahydro-5H-pyrimido[4,5-b][1,4]diazepin-2-yl)amino)-N-(1-(5-((2-(2,6-dioxopiperidin-3-yl)-1,3-dioxoisoindolin-4-yl)amino)pentyl)piperidin-4-yl)-2-fluoro-5-methoxybenzamide], the DC50 was ≤ 0.5 µM and the Dmax was 60 to 80%.
In the case of `COc1cc(C(=O)NC2CCN(CCCCCCNc3cccc4c3C(=O)N(C3CCC(=O)NC3=O)C4=O)CC2)c(F)cc1Nc1ncc2c(n1)N(C1CCCC1)CC(F)(F)C(=O)N2C` (stereo not shown) [Compound 10, 4-((9-cyclopentyl-7,7-difluoro-5-methyl-6-oxo-6,7,8,9-tetrahydro-5H-pyrimido[4,5-b][1,4]diazepin-2-yl)amino)-N-(1-(6-((2-(2,6-dioxopiperidin-3-yl)-1,3-dioxoisoindolin-4-yl)amino)hexyl)piperidin-4-yl)-2-fluoro-5-methoxybenzamide], the DC50 is reported as ≤ 0.5 µM and the Dmax is reported as 60 to 80%.
